Source: patent US20220062240A1, “METHODS OF TREATING CANCER USING A CLK INHIBITOR” (BioSplice Therapeutics, Inc., priority 2018, published 2022)

Legend:
[1] = biological target: T1, MAP3K7/MAP3K7IP1 (TAK1-TAB1) (Homo sapiens, UniProt O43318); assay: Kinase IC50 (SelectScreen); type: biochemical; conditions: Table 8
T1 construct: purchased ThermoFisher SelectScreen

NCI-N87 = assay: CellTiter-Blue Cell Viability Assay; type: cell-based; conditions: Homo sapiens, 96 h; NCI-N87, TP53, SMAD4, HER2 amplification, 4 days
Experimental: (§1) Effect on cell proliferation was performed using the CellTiter-Blue*® viability assay or the CellTiter-Glo© Viability Assay as recommended by the manufacturer (Promega).
(§2) Cells were plated in a black-walled, clear-bottomed 96-well plates with ˜1.5-3.0×10^3 cells/well in appropriate medium containing 10% FBS. […] Fluorescence signal was measured at 560ex/590em nm using the Cytation3 multimodal plate reader (BioTek).

SNU-1 = assay: CellTiter-Blue Cell Viability Assay; type: cell-based; conditions: Homo sapiens, SNU1, 96 h; SNU-1, KRAS, MLH1, 4 days
Experimental: as §1, §2

KATO III = assay: CellTiter-Blue Cell Viability Assay; type: cell-based; conditions: Homo sapiens, 96 h, TP53, 4 days
Experimental: as §1, §2

AGS = assay: CellTiter-Blue Cell Viability Assay; type: cell-based; conditions: Homo sapiens, 96 h, CDH1, CTNNB1, KRAS, PIK3CA, 4 days
Experimental: as §1, §2

MAP4K4 (HGK) = biological target: T2, MAP4K4 (HGK) (Homo sapiens, UniProt O95819); assay: Kinase IC50 (SelectScreen); type: biochemical
T2 construct: purchased ThermoFisher SelectScreen

CLK4 = biological target: T3, CLK4 (Homo sapiens, UniProt Q9HAZ1); assay: Kinase IC50 (SelectScreen); type: biochemical
T3 construct: purchased ThermoFisher SelectScreen

[2] = tested on: SW480 colorectal cancer cells; assay: Apoptosis assays (caspase 3/7, cleaved PARP, DNA fragmentation, Survivin, MCL-1); type: cell-based, human
Experimental: Induction of apoptosis or programmed cell death is an important mechanism by which anti-cancer drugs can exert activity.
For apoptosis assays, SW480 cells were plated at 7500 cells/well in a black-walled clear-bottom 96-well plate (Corning). […] After the 48-hour treatment timepoint, CellEvent™ Caspase 3/7 Green Detection Reagent (Thermo Fisher) was incubated at 37° C. for 30 minutes, followed by Hoechst 33342 nuclear staining (Thermo Fisher). Imaging and quantitation was performed using CellInsight™ CX5 high content imager (Thermo Fisher). For each well, the percentage of apoptotic cells was calculated as a ratio of the total number of cells stained positive for CellEvent Caspase 3/7 reagent to the total number of nuclei. Average of the three replicate wells per condition are presented.
For indicated experiments, cells were pelleted by centrifugation and washed with PBS and protein from the cell pellet was fractionated into cytoplasmic and nuclear fractions using a NE-PER™Nuclear and Cytoplasmic Extraction Reagents kit containing Halt™ protease and phosphatase inhibitors (Thermo Fisher). Protein concentrations of the samples were quantified using the Pierce Micro BCA protein assay kit (Thermo Fisher). […] Primary antibodies were incubated overnight at 4° C., with GAPDH, Lamin B1 or β-actin being used as loading controls (refer to Table 19 for primary antibodies and dilutions used).

T84 = assay: CellTiter-Blue Cell Viability Assay; type: cell-based; conditions: Homo sapiens, 96 h; T84, KRASmut, APCmut, 4 days
Experimental: (§3) […]. Effect on cell proliferation was performed using the CellTiter-Blue*® viability assay or the CellTiter-Glo© Viability Assay as recommended by the manufacturer (Promega).
(§4) […]. Fluorescence signal was measured at 560ex/590em nm using the Cytation3 multimodal plate reader (BioTek).

HCT 15 = assay: CellTiter-Blue Cell Viability Assay; type: cell-based; conditions: Homo sapiens, 96 h; HCT 15, KRASmut, APCmut, 4 days
Experimental: as §3, §4

COLO 320HSR = assay: CellTiter-Blue Cell Viability Assay; type: cell-based; conditions: Homo sapiens, 96 h, KRASwt, APCmut, 4 days
Experimental: as §3, §4

HT29 = assay: CellTiter-Blue Cell Viability Assay; type: cell-based; conditions: Homo sapiens, HT-29, 96 h; HT29, KRASwt, BRAFmut, APCmut, 4 days
Experimental: as §3, §4

HCT 116 = assay: CellTiter-Blue Cell Viability Assay; type: cell-based; conditions: Homo sapiens, 96 h; HCT 116, KRASmut, CTNNB1mut, 4 days
Experimental: as §3, §4

LS513 = assay: CellTiter-Blue Cell Viability Assay; type: cell-based; conditions: Homo sapiens, LS-513, 96 h; LS513, KRASmut, CTNNB1mut, BRAFmut, 4 days
Experimental: as §3, §4

RKO = assay: CellTiter-Blue Cell Viability Assay; type: cell-based; conditions: Homo sapiens, 96 h, KRASwt, BRAFmut, 4 days
Experimental: as §3, §4

LoVo = assay: CellTiter-Blue Cell Viability Assay; type: cell-based; conditions: Homo sapiens, 96 h, KRASmut, APCmut, 4 days
Experimental: as §3, §4

HuTu 80 = assay: CellTiter-Blue Cell Viability Assay; type: cell-based; conditions: Homo sapiens, HuTu80, 96 h; HuTu 80, KRASwt, CTNNB1mut, 4 days
Experimental: as §3, §4

COLO 205 = assay: CellTiter-Blue Cell Viability Assay; type: cell-based; conditions: Homo sapiens, 96 h; COLO 205, KRASwt, BRAFmut, APCmut, 4 days
Experimental: as §3, §4

SW48 = assay: CellTiter-Blue Cell Viability Assay; type: cell-based; conditions: Homo sapiens, 96 h; SW48, KRASwt, APCmut, CTNNB1mut, 4 days
Experimental: as §3, §4

C2BBel = assay: CellTiter-Blue Cell Viability Assay; type: cell-based; conditions: Homo sapiens, 96 h, KRASwt, APCmut, 4 days
Experimental: as §3, §4

SW1417 = assay: CellTiter-Blue Cell Viability Assay; type: cell-based; conditions: Homo sapiens, 96 h; SW1417, KRASwt, BRAFmut, APCmut, 4 days
Experimental: as §3, §4

SW480 = assay: CellTiter-Blue Cell Viability Assay; type: cell-based; conditions: Homo sapiens, 96 h; SW480, KRASmut, APCmut, 4 days
Experimental: as §3, §4

SW620 = assay: CellTiter-Blue Cell Viability Assay; type: cell-based; conditions: Homo sapiens, SW-620, 96 h; SW620, KRASmut, APCmut, 4 days
Experimental: as §3, §4

LS123 = assay: CellTiter-Blue Cell Viability Assay; type: cell-based; conditions: Homo sapiens, LS-123, 96 h; LS123, KRASmut, APCmut, 4 days
Experimental: as §3, §4

DLD-1 = assay: CellTiter-Blue Cell Viability Assay; type: cell-based; conditions: Homo sapiens, 96 h; DLD-1, KRASmut, APCmut, 4 days
Experimental: as §3, §4

T1 sequence (O43318 with tags, fused parts or gaps limits assumed): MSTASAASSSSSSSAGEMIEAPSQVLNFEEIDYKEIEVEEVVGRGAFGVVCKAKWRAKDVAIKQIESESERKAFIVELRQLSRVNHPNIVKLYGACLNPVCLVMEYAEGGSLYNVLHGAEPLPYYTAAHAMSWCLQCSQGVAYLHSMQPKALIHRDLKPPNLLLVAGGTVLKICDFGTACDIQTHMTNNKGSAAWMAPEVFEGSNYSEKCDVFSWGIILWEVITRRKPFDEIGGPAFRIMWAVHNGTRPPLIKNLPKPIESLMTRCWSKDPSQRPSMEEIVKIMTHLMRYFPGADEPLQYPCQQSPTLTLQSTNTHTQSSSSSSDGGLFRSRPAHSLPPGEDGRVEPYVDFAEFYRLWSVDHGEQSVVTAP
T3 sequence (Q9HAZ1 whole entry): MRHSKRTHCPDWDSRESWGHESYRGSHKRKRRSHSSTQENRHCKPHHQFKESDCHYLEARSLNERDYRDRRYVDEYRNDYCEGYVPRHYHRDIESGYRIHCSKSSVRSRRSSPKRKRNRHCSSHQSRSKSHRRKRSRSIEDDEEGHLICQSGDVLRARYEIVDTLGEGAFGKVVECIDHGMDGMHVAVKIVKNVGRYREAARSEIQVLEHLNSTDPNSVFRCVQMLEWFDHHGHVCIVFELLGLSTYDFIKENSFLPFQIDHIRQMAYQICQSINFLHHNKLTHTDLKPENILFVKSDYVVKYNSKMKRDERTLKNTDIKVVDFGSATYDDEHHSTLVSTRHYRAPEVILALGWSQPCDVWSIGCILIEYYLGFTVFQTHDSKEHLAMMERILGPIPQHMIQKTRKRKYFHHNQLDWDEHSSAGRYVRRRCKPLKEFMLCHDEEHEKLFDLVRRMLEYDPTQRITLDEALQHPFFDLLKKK
T2 sequence (O95819 whole entry): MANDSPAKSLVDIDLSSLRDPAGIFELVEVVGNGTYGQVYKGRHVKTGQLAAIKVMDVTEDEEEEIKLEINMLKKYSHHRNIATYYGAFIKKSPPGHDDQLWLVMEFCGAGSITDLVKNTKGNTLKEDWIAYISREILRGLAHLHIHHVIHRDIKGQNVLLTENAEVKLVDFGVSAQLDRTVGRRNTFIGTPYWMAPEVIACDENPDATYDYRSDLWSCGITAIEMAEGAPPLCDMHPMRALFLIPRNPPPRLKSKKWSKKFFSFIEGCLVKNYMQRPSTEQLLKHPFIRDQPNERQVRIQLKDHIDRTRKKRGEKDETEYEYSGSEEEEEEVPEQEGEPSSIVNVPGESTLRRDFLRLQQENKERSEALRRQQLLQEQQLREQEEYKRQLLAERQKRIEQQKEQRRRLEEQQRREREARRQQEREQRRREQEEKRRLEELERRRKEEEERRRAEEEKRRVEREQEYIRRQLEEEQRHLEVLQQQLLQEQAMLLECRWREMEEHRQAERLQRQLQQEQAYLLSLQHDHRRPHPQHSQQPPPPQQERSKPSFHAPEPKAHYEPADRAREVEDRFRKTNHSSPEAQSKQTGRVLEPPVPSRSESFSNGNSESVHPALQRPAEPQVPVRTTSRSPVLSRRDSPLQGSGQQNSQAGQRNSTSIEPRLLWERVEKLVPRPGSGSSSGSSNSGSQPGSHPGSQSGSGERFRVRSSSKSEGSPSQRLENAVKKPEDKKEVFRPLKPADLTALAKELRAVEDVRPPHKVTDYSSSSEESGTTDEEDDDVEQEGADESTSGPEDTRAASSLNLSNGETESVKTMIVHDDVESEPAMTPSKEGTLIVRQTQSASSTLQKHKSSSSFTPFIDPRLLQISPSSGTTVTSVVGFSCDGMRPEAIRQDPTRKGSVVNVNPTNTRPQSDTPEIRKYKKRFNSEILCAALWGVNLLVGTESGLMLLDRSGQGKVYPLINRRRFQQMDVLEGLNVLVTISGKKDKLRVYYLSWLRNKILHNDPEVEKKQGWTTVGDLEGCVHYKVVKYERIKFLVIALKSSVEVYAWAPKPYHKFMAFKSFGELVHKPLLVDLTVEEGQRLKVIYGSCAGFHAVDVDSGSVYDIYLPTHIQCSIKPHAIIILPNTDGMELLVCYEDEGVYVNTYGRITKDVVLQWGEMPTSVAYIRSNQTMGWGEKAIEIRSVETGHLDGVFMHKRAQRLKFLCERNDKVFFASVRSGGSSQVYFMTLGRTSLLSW

CN1CCN(c2cc(C(=O)Nc3cc4cc(-c5cnn(C)c5)ccc4cn3)ccn2)CC1 [Compound 12]
IC50 [1]: 37 nM | EC50 (NCI-N87): 17 nM | EC50 (SNU-1): 31 nM | EC50 (KATO III): 447 nM | EC50 (AGS): 185 nM | IC50 (MAP4K4 (HGK)): 7 nM | IC50 (CLK4): 1 nM | induction of apoptosis (activated caspase 3/7, cleaved PARP, DNA fragmentation) ([2]; SW480): potent inducer of apoptosis | protein expression of Survivin and MCL-1 ([2]; SW480, 48 hours): inhibit | EC50 (T84): 127 nM | EC50 (HCT 15): 120 nM | EC50 (COLO 320HSR): 110 nM | EC50 (HT29): 189 nM | EC50 (HCT 116): 103 nM | EC50 (LS513): 321 nM | EC50 (RKO): 120 nM | EC50 (LoVo): 194 nM | EC50 (HuTu 80): 178 nM | EC50 (COLO 205): 150 nM | EC50 (SW48): 91 nM | EC50 (C2BBel): 78 nM | EC50 (SW1417): 282 nM | EC50 (SW480): 85 nM | EC50 (SW620): 87 nM | EC50 (LS123): 472 nM | EC50 (DLD-1): 303 nM
